Source: US12329799B2, “Peptidyl inhibitors of calcineurin-NFAT interaction” (Ohio State Innovation Foundation, priority 2018, dated 2025)
Positions of bridges follow the written chain, without caps; N, C: chain ends. Non-standard residues stand in square brackets, D forms with d. Residues, ends and D or L forms follow the SMILES beside them. Chains are numbered I, II in the order given. *: point of attachment. Benzoyl(2,3-Cl2) = O=C(c1cccc(Cl)c1Cl)*; 2Nal = N[C@@H](Cc1ccc2ccccc2c1)C(=O)O; Tle = CC(C)(C)[C@H](N)C(=O)O; βAla = NCCC(=O)O

Columns and labels:
HeLa cells [1] = test: Cytosolic delivery assay (NF-labeled peptides, flow cytometry); type: cell-based; settings: 5 μM, 2 h, relative to CPP9 = 100%
Description: The NF fluorescence intensity of the treated cells therefore reflects the amount of the peptide that has reached the cytosol and nucleus of the cells. […] Live-cell confocal microscopic analysis confirmed that CNI93 reached the interior of HeLa cells.
Cytosolic Delivery Assay. HeLa cells maintained in DMEM supplemented with 10% FBS and 1% penicillin/streptomycin were seeded into 12-well plates (1.5×10^5 cells per well) and incubated overnight at 37° C., 5% CO2. The following day, the cells were washed with DPBS and incubated with 5 μM NF-labeled peptides dissolved in DMEM containing 10% FBS, 1% penicllin/streptomycin for 2 h at 37° C. in the presence of 5% CO2. After that, the cells were washed with DPBS and harvested from the plate by treatment with 0.25% trypsin for 5 min. Cells were centrifuged at 300×RCF, washed twice with cold DPBS, and resuspended in cold DPBS for flow cytometry analysis on a BD LSR II flow cytometer followed by data analysis and gating using Flowjo. Calculation of cytosolic uptake efficiencies was carried out as previously described by Qian, Z., et al., Discovery and Mechanism of Highly Efficient Cyclic Cell-Penetrating Peptides. Biochemistry 2016, 55, 2601-2612.

HeLa cells [2] = test: MTT assay, HeLa; type: cell-based; settings: 72 h
Description: MTT Proliferation Assay. HeLa, Jurkat-Lucia, or H441 cells were seeded into a 96-well microplate (5000 cells per well) in full growth media and incubated at 37° C. overnight. A serial dilution of each compound was prepared in DPBS and then added to each well. The treated cells were incubated at 37° C. with 5% CO2 for 72 h. Following compound treatment, 10 μL of MTT stock solution was added to each well. After an additional 4 h at 37° C., 100 μL of SDS-HCl solubilizing solution was added to each well and the plate was returned to the incubator overnight at 37° C. A Tecan Infinite M1000 Pro microplate reader was used the following morning to measure the absorbance of the formazan product at 565 nm.
Potential cytotoxicity of CNI101 (SEQ ID NO: 206) and CNI103 (SEQ ID NO: 208) was tested on HeLa cells by the MTT proliferation assay. HeLa cells were seeded into a 96-well microplate (5000 cells per well) in full growth media and incubated at 37° C. overnight. A serial dilution of each inhibitor was prepared in DPBS and then added to each well. The treated cells were incubated at 37° C. with 5% CO2 for 72 h. Following compound treatment, 10 μL of MTT stock solution was added to each well. After an additional 4 h at 37° C., 100 μL of SDS-HCl solubilizing solution was added to each well and the plate was returned to the incubator overnight at 37° C. A Tecan Infinite M1000 Pro microplate reader was used the following morning to measure the absorbance of the formazan product at 565 nm.

[3] = Maximum tolerated dose (body weight over 10 days); type: in vivo
[4] = system: NFATc3 nuclear translocation; test: LPS-induced NFATc3 nuclear translocation in macrophages (immunofluorescence); type: cell-based, mouse; settings: 1 μM peptide pretreatment, LPS stimulation
Description: Endotoxin lipopolysaccharide (LPS) was previously shown to induce NFATc3 translocation from the cytoplasm into the nucleus and upregulation of NFATc3 target genes in macrophages.
Immunofluorescence. Mouse BMDM were pretreated with 1 μM of control CPP9 (SEQ ID NO: 76)-VAVAA (SEQ ID NO: 224)-Biotin or CNI93-Biotin peptides for 5 min and stimulated with PBS or LPS (100 ng/mL) for 1 h. Treated cells were washed, fixed in 4% paraformaldehyde and incubated sequentially with anti-rabbit NFATc3, Anti-rabbit Alexa Fluor™ 488 Conjugate and Alexa Fluor™ 594 Streptavidin. Cells were washed three times in 1×PBS after incubation with each antibody.

[5] = system: LPS-induced TNFα and IL-6 secretion, mouse total lung macrophages; test: Inhibition of TNFα and IL-6 secretion by macrophage; type: cell-based; settings: 100 nM, 1 μM, or 10 μM for 2 h, then LPS 6 h
Description: Mouse total lung macrophages were obtained from 5 mice and pooled. Macrophages were pretreated with 100 nM, 1 μM, or 10 μM inhibitor for 2 h and stimulated with LPS ([…]) or PBS for 6 h. Cell supernatants were collected and analyzed for TNFα levels (FIG. 20A) or IL-6 levels (FIG. 20B) by R&D Systems TNFα ELISA kit and R&D Systems IL-6 ELISA kit.

[6] = system: NFAT-mediated luciferase expression in Jurkat cells; test: NFAT luciferase assay in Jurkat cells; type: cell-based; settings: 10 μM, Jurkat cells
Description: In a separate experiment, CNI93 was also tested against Jurkat cells expressing a luciferase gene under the transcriptional control of NFAT.
NFAT Luciferase Assay. Jurkat-Lucia cells maintained in RPMI-1640 supplemented with 10% FBS, 1% penicillin/streptomycin (v/v/v) and 100 μg/mL normocin were harvested after a passage with 50 μg/mL selective antibiotic Zeocin at 300×RCF for 5 min. Cells were resuspended in warm RPMI-1640 with antibiotics but without FBS to a final density of 2×10^6 cells/mL and seeded into white-on-white cell-culture treated 96-well plates. To each well was added 10 μL of DPBS containing compounds which dilute to the desired concentrations followed by 170 μL of cell suspension […] and incubated at 37° C. for 2 h. The cells were induced by treatment with 50 ng/mL PMA and 3 μg/mL ionomycin, Ca^2+ salt in FBS to achieve a final FBS concentration of 10% in each well (with FBS only as control). The plate was incubated for an additional 4 h at 37° C., when 20 μL of each sample was withdrawn and mixed with 50 μL of Quanti-Luc assay solution. The luminescence of the mixture was immediately measured on a Tecan Infinite M1000 plate reader.

CC[C@H](C)[C@H](NC(=O)[C@@H](NC(=O)c1cccc(Cl)c1Cl)C(C)(C)C)C(=O)N[C@H](C(=O)N[C@H](C(=O)N[C@H](C(=O)N[C@@H](CCC(N)=O)C(=O)N[C@@H](Cc1c[nH]cn1)C(=O)N[C@H](CC(C)C)C(=O)N[C@@H](CO)C(=O)NCCC(=O)N[C@@H](CCCCNC(=O)CC[C@@H]1NC(=O)[C@@H](CCCNC(=N)N)NC(=O)[C@H](CCCNC(=N)N)NC(=O)[C@@H](CCCNC(=N)N)NC(=O)[C@H](CCCNC(=N)N)NC(=O)[C@H](Cc2ccc3ccccc3c2)NC(=O)[C@@H](Cc2ccccc2)NC1=O)C(N)=O)[C@@H](C)O)[C@@H](C)CC)C(C)(C)C [CNI93] (I: {Benzoyl(2,3-Cl2)}-[Tle]I[Tle]ITQH[dL]S[βAla]K-NH2 / II: cyclo([2Nal]R[dR]R[dR]E[dF]); amide I:11-II:6 (inferred); ring closure inferred)
relative cytosolic delivery efficiency (HeLa cells [1]): 109%
cytotoxicity (HeLa cells [2]; 25 μM): No significant cytotoxicity
cell viability (HeLa cells [2]; 50 μM): Reduction in cell viability
body weight ([3]; intranasal 10 mg/kg): steady increase in body weight similar to healthy controls
survival and signs of distress ([3]; intranasal 10 mg/kg): survived and showed no visible sign of distress
body weight ([3]; intranasal 50 mg/kg): steady increase in body weight similar to healthy controls
survival and signs of distress ([3]; intranasal 50 mg/kg): survived and showed no visible sign of distress
LPS-induced nuclear translocation of NFATc3 [4]: completely blocked
secreted amounts of TNFα and IL6 [5]: dose-dependently reduced
phorbol ester- and ionomycin-induced expression of luciferase [6]: potently inhibited
